Literature values in patent US20090304869A1, “Peptides Having an Ace Inhibiting Effect” (priority 2005, published 2009).

Assays:
[1] = in sour milk, hypertensive humans
ACE = ACE (Homo sapiens, UniProt P12821); details: peptides in fermented milk products
Sequence of ACE (P12821 30-1306, species assumed): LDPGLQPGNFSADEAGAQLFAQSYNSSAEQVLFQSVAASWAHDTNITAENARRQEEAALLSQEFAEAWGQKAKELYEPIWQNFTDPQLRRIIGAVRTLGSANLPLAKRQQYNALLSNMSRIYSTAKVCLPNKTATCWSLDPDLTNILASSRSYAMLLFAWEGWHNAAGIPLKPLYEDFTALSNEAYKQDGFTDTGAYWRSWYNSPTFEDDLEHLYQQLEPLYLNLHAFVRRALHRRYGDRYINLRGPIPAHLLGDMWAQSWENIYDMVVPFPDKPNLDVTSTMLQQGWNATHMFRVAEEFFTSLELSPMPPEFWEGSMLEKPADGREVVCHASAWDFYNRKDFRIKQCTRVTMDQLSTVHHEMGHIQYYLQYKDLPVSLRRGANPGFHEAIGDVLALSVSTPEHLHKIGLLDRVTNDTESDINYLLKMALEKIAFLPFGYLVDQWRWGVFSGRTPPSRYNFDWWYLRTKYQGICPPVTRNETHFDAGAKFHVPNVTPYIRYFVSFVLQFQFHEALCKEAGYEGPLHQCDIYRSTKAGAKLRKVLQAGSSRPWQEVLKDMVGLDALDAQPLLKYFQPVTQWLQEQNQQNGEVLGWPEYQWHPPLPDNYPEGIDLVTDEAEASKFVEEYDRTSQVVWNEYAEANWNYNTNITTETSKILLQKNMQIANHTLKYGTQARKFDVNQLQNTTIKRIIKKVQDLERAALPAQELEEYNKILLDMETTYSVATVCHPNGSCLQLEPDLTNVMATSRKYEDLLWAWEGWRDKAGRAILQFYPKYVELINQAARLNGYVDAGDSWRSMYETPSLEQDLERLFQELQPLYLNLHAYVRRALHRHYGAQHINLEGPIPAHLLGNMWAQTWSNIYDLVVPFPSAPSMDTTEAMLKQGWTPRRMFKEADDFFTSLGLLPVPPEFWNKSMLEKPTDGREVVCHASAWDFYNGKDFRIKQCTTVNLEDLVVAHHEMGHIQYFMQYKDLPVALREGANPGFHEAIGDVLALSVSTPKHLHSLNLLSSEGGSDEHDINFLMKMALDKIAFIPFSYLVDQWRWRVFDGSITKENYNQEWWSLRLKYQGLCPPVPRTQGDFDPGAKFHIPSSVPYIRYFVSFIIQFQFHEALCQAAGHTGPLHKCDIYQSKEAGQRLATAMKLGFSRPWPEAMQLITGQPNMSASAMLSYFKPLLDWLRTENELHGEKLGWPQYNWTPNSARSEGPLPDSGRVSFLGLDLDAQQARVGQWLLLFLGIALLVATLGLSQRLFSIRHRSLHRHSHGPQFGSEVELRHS

in vitro ACE inhibition (ACE): showed in vitro ACE inhibition
SMILES: CC[C@H](C)[C@H](N)C(=O)N1CCC[C@H]1C(=O)N1CCC[C@H]1C(=O)O [IPP]
blood pressure lowering effect [1]: blood pressure lowering effect
